Test results as given in the NIST ThermoML archive (doi:10.1021/acs.jced.7b00002).
Numbers after ± are expanded uncertainties.

Test: xn = mol fraction of the nth substance listed
Conditions: 97.6 kPa, Liquid; for viscosity: Capillary tube (Ostwald / Ubbelohde) method; for mass density: Vibrating tube method

CCCCCCCC[n+]1ccn(C)c1.[Cl-] [1-methyl-3-octylimidazolium chloride] + CN(C)C=O
Conditions | mass density [kg/m3] | viscosity [mPa·s]
303.15 K, x1 = 0.119 | 965.57 ± 1.9 | 2.56
303.15 K, x1 = 0.241 | 979.1 ± 2 | 8.9
303.15 K, x1 = 0.321 | 985.99 ± 2 | 18.99
303.15 K, x1 = 0.424 | 992 ± 2 | 49.08
303.15 K, x1 = 0.557 | 996.35 ± 2 | 160.48
303.15 K, x1 = 0.739 | 1002.01 ± 2.1 | 766.79
303.15 K, x1 = 0.858 | 1004.31 ± 2.1 | 1892.8
303.15 K, x1 = 1 | 1006.2 ± 2.2 | 7339.7
308.15 K, x1 = 0.119 | 961.27 ± 1.9 | 2.32
308.15 K, x1 = 0.241 | 975.4 ± 2 | 7.69
308.15 K, x1 = 0.321 | 982.47 ± 2 | 15.91
308.15 K, x1 = 0.424 | 988.63 ± 2 | 39.48
308.15 K, x1 = 0.557 | 993.19 ± 2 | 122.67
308.15 K, x1 = 0.739 | 998.95 ± 2.1 | 536.62
308.15 K, x1 = 0.858 | 1001.36 ± 2.1 | 1258
308.15 K, x1 = 1 | 1003.33 ± 2.1 | 4272.9
313.15 K, x1 = 0.119 | 957.31 ± 1.9 | 2.13
313.15 K, x1 = 0.241 | 971.7 ± 2 | 6.75
313.15 K, x1 = 0.321 | 979.05 ± 2 | 13.51
313.15 K, x1 = 0.424 | 985.26 ± 2 | 32.2
313.15 K, x1 = 0.557 | 989.93 ± 2 | 95.06
313.15 K, x1 = 0.739 | 995.95 ± 2.1 | 381.17
313.15 K, x1 = 0.858 | 998.42 ± 2.1 | 856.69
313.15 K, x1 = 1 | 1000.48 ± 2.1 | 2766.9
318.15 K, x1 = 0.119 | 953.45 ± 1.9 | 1.95
318.15 K, x1 = 0.241 | 967.99 ± 2 | 5.96
318.15 K, x1 = 0.321 | 975.72 ± 2 | 11.56
318.15 K, x1 = 0.424 | 981.9 ± 2 | 26.5
318.15 K, x1 = 0.557 | 986.82 ± 2 | 74.18
318.15 K, x1 = 0.739 | 992.97 ± 2.1 | 277.21
318.15 K, x1 = 0.858 | 995.47 ± 2.1 | 596.05
318.15 K, x1 = 1 | 997.64 ± 2.1 | 1788.6
323.15 K, x1 = 0.119 | 949.36 ± 1.9 | 1.81
323.15 K, x1 = 0.241 | 964.31 ± 1.9 | 5.29
323.15 K, x1 = 0.321 | 972.37 ± 2 | 10
323.15 K, x1 = 0.424 | 978.56 ± 2 | 22.11
323.15 K, x1 = 0.557 | 983.92 ± 2 | 59.06
323.15 K, x1 = 0.739 | 990 ± 2.1 | 206.44
323.15 K, x1 = 0.858 | 992.57 ± 2.1 | 426.48
323.15 K, x1 = 1 | 994.82 ± 2.1 | 1198.7
328.15 K, x1 = 0.119 | 945.25 ± 1.9 | 1.67
328.15 K, x1 = 0.241 | 960.61 ± 1.9 | 4.75
328.15 K, x1 = 0.321 | 969.03 ± 2 | 8.72
328.15 K, x1 = 0.424 | 975.22 ± 2 | 18.67
328.15 K, x1 = 0.557 | 980.8 ± 2 | 47.65
328.15 K, x1 = 0.739 | 987.03 ± 2.1 | 156.59
328.15 K, x1 = 0.858 | 989.7 ± 2.1 | 312.38
328.15 K, x1 = 1 | 992 ± 2.1 | 828.3
333.15 K, x1 = 0.119 | 941.11 ± 1.9 | 1.56
333.15 K, x1 = 0.241 | 956.95 ± 1.9 | 4.25
333.15 K, x1 = 0.321 | 965.62 ± 2 | 7.67
333.15 K, x1 = 0.424 | 971.88 ± 2 | 15.92
333.15 K, x1 = 0.557 | 977.65 ± 2 | 38.97
333.15 K, x1 = 0.739 | 984.05 ± 2 | 120.9
333.15 K, x1 = 0.858 | 986.83 ± 2.1 | 233.56
333.15 K, x1 = 1 | 989.17 ± 2.1 | 588.69
338.15 K, x1 = 0.119 | 936.97 ± 1.9 | 1.45
338.15 K, x1 = 0.241 | 953.32 ± 1.9 | 3.85
338.15 K, x1 = 0.321 | 962.16 ± 1.9 | 6.79
338.15 K, x1 = 0.424 | 968.56 ± 2 | 13.71
338.15 K, x1 = 0.557 | 974.48 ± 2 | 32.38
338.15 K, x1 = 0.739 | 981.09 ± 2 | 94.93
338.15 K, x1 = 0.858 | 983.97 ± 2.1 | 176.82
338.15 K, x1 = 1 | 986.38 ± 2.1 | 426.28
343.15 K, x1 = 0.119 | 932.83 ± 1.9 | 1.36
343.15 K, x1 = 0.241 | 949.69 ± 1.9 | 3.5
343.15 K, x1 = 0.321 | 958.67 ± 1.9 | 6.06
343.15 K, x1 = 0.424 | 965.24 ± 2 | 11.91
343.15 K, x1 = 0.557 | 971.56 ± 2 | 27.13
343.15 K, x1 = 0.739 | 978.13 ± 2 | 75.65
343.15 K, x1 = 0.858 | 981.1 ± 2.1 | 137.16
343.15 K, x1 = 1 | 983.63 ± 2.1 | 316.66
348.15 K, x1 = 0.119 | 928.69 ± 1.9 | 1.27
348.15 K, x1 = 0.241 | 946.02 ± 1.9 | 3.2
348.15 K, x1 = 0.321 | 955.18 ± 1.9 | 5.43
348.15 K, x1 = 0.424 | 961.92 ± 2 | 10.41
348.15 K, x1 = 0.557 | 968.34 ± 2 | 22.93
348.15 K, x1 = 0.739 | 975.19 ± 2 | 61.29
348.15 K, x1 = 0.858 | 978.24 ± 2.1 | 108.17
348.15 K, x1 = 1 | 980.88 ± 2.1 | 237.14
353.15 K, x1 = 0.119 | 924.55 ± 1.9 | 1.2
353.15 K, x1 = 0.241 | 942.33 ± 1.9 | 2.93
353.15 K, x1 = 0.321 | 951.69 ± 1.9 | 4.9
353.15 K, x1 = 0.424 | 958.62 ± 2 | 9.16
353.15 K, x1 = 0.557 | 965.07 ± 2 | 19.6
353.15 K, x1 = 0.739 | 972.25 ± 2 | 50.08
353.15 K, x1 = 0.858 | 975.39 ± 2 | 86.03
353.15 K, x1 = 1 | 978.13 ± 2.1 | 181.41
